Paper PMC10065799, “High-throughput profiling of sequence recognition by tyrosine kinases and SH2 domains using bacterial peptide display” (eLife, 2023)

What was measured:
c-Src kinase domain [1] = molecular target: T1, c-Src kinase domain (Homo sapiens, UniProt P12931); experiment: ADP-Quest continuous fluorimetric kinase assay (Michaelis-Menten parameters and initial rates); format: biochemical; conditions: ADP-Quest assay, c-Src kinase domain 10 nM, 100 μM ATP, 37 °C; three to five replicates; error = standard error of global Michaelis-Menten fit
Fer kinase domain = experiment: pTyr-Var library bacterial peptide display kinase screen (enrichment scores); format: biochemical, mouse; conditions: sheet "Fer";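 note: log2 fold change in enrichment of variant over reference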
EPHB1 kinase domain = experiment: as above; format: biochemical, human; conditions: for Screen: sheet EPHB1, effect of the variant peptide relative to its reference peptide in the pTyr-Var library screen (enrichment scores); for Screen (variant relative to reference peptide, measured in the pTyr-Var library screen): sheet "EPHB1", variant seq vs reference seq, bacterial peptide display enrichment
EPHB2 kinase domain = experiment: as above; format: biochemical, human; conditions: sheet EPHB2;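 note: log2 fold change in enrichment of variant over reference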
c-Src kinase domain [2] = molecular target: T1, c-Src kinase domain; experiment: as above; format: biochemical; conditions: sheet "Src"
c-Abl kinase domain = molecular target: T2, c-Abl kinase domain (Mus musculus, UniProt P00520); experiment: as above; format: biochemical;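 note: log2 fold change in enrichment of variant over reference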
T2 sequence (P00520 242-493 limits assumed): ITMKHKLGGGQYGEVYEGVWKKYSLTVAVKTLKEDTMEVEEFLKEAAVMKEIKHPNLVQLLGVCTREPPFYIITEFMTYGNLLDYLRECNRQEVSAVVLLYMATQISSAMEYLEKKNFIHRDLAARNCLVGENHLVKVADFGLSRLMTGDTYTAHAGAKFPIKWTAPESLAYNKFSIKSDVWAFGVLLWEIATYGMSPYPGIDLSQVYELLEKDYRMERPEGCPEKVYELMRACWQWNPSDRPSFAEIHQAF

c-Src kinase domain [3] = molecular target: T1, c-Src kinase domain; experiment: RP-HPLC assay to measure peptide phosphorylation kinetics; format: biochemical; conditions: purified peptide substrate
Description: To validate the enrichment scores observed in the c-Src screening data, the phosphorylation rates were measured in vitro with the purified catalytic domain of c-Src and synthetic 11-residue peptides derived from sequences in the pTyr-Var library. […] Reactions were initiated by adding 1 mM ATP. At various time points, 100 μL aliquots were removed and quenched by the addition of EDTA to a final concentration of 25 mM. Each time point sample was analyzed by analytical RP-HPLC, monitoring absorbance at 214 nm. Forty μL of each time point was injected onto a C18 column (ZORBAX 300 SB-C18, 5 μm, 4.6x150 mm). The solvent system used was water with 0.1% trifluoroacetic acid (solvent A) and acetonitrile with 0.1% trifluoroacetic acid (solvent B). […] The fractional product peak area was plotted as a function of reaction time, and the initial linear regime of this plot was fitted to a straight line to determine a reaction rate. Rates were corrected for substrate and enzyme concentration. Reactions were done in triplicate or quadruplicate.

[4] = value of the variant peptide against its reference peptide in the pTyr-Var library screen with Fer
[5] = effect of variant peptide relative to its reference peptide in the pTyr-Var library screen (enrichment scores)
[6] = variant peptide versus its reference peptide in the pTyr-Var library screen
[7] = variant peptide relative to its reference peptide, pTyr-Var library screen enrichment
[8] = effect of the variant peptide relative to its reference peptide in the pTyr-Var library screen
[9] = fig5-data2, sheet "Abl", Screen for the variant/reference peptide pair, pTyr-Var library
[10] = effect of the variant relative to its reference peptide in the pTyr-Var library screen
[11] = sheet "Abl", effect of variant peptide relative to its reference peptide in pTyr-Var library screen (enrichment)

| Substance | Screen (Fer kinase domain; [4]) | Screen (EPHB1 kinase domain) | Screen (EPHB2 kinase domain; [5]) | Screen (c-Src kinase domain [2]; [6]) | Screen (c-Src kinase domain [2]; [8]) | also measured |
| --- | --- | --- | --- | --- | --- | --- |
| Ac-GCDECIYGMFPFRRRG-NH2 [Src Consensus (P-5C, D+1 G), Src Consensus-related peptide with +1 Gly] | – | – | – | – | – | Km (c-Src kinase domain [1]): 97 ± 10 µM; kcat (c-Src kinase domain [1]): 4.4±0.2 s^–1 |
| KLPFLYDDPFS [GPX2_Y127_P126L_YF] | 1.127 | 2.862 | 2.625 | – | – | – |
| LLIMEYAKFGS [RET_Y806_V804M_YF] | – | -1.009 | -0.7138 | 0.7851 | – | – |
| AQQPIYIRVEG [NLRP7_Y318_V319I] | – | -2.185 | -2.079 | -2.214 | – | – |
| PFGQWYESHFA [RPS8_Y113_R110G_YF] | – | 2.825 | 2.604 | 2.137 | – | Screen (Fer kinase domain; [7]): 2.253 |
| PFRKLYESVKK [MKI67_Y241_W238R] | -1.869 | -3.688 | -2.876 | – | -1.776 | – |
| PMFHSYVSLPF [PLXNA2_Y293_K289M] | – | 0.7871 | 0.8579 | – | – | Screen (c-Abl kinase domain; [9]): 0.1709 |
| LENSTYQFIHV [CRB1_Y760_R764H_YF] | 0.6151 | 0.7891 | 0.62 | – | 0.1019 | Screen (c-Abl kinase domain; [9]): -1.13 |
| ITNLLYHLVGW [GBA_Y412_V414L] | 0.1481 | -1.095 | -1.708 | – | -0.6312 | – |
| SPFMLYQFLKQ [RPAP3_Y567_D564Y_YF] | – | 2.24 | 1.841 | -1.029 | – | Screen (Fer kinase domain; [7]): -1.212 |
| GQRDLYSGLNE [CD3E_Y199_Q204E] | -1.295 | -0.9821 | -0.7383 | – | -0.3824 | – |
| LFEDCYLLGTS [ASS1_Y87_R86C_YF] | – | -1.767 | -0.8272 | – | 2.612 | – |
| IEEGTYGVAFR [CDK11B_Y449_V452A_YF] | -0.4849 | -1.792 | -1.778 | – | -0.1184 | – |
| DAKTIYDFTDT [PDK1_Y136_A134T] | -1.776 | – | -1.665 | -0.8148 | – | – |
| KVASVYEALGF [NT5C_Y65_P68L] | -0.5868 | 1.12 | -0.4355 | 0.2966 | – | – |
| RGDCTYAPLLG [AR_Y269_M268T] | -1.638 | 0.2378 | 0.1305 | – | 0.1809 | – |
| Ac-IGEGTYRTVFK-NH2 [CDK5-Y15-G16R] | – | – | – | – | – | Phosphorylation Rate (c-Src kinase domain [3]): 0.219 s⁻¹ |
| CGPLLYGLVHQ [PRKCG_Y122_S119P] | -0.6662 | 0.3123 | -0.1456 | -0.4426 | – | – |

| Substance | Screen (Fer kinase domain; [4]) | Screen (EPHB1 kinase domain) | Screen (EPHB2 kinase domain; [5]) | Screen (c-Src kinase domain [2]; [6]) | Screen (c-Src kinase domain [2]; [8]) | also measured |
| --- | --- | --- | --- | --- | --- | --- |
| KLVQLYDVCTK [BTK_Y461_G462D] | 2.534 | 3.126 | 2.907 | – | 0.2967 | – |
| FQNSLYAPDFS [FAM92A_Y226_R222Q_YF] | 1.873 | 0.991 | 1.651 | – | 0.8192 | – |
| MVIPNYSSWTE [UROC1_Y185_R188W] | – | – | – | – | – | Screen (Fer kinase domain; [7]): 2.023; Screen (variant relative to reference peptide, measured in the pTyr-Var library screen) (EPHB1 kinase domain): 4.533; Screen (EPHB2 kinase domain; [10]): 4.793 |
| HNLDFYKMTTN [FGFR3_Y648_K650M_YF] | -0.9943 | -1.054 | 0.0281 | – | -2.668 | – |
| ACCLLYCGDVV [TUBA4A_Y319_R320C] | – | – | – | -0.4326 | – | Screen (Fer kinase domain; [7]): 2.253; Screen (variant relative to reference peptide, measured in the pTyr-Var library screen) (EPHB1 kinase domain): 4.284; Screen (EPHB2 kinase domain; [10]): 3.709; Screen (c-Abl kinase domain; [11]): -0.5266 |
| RGKLFYQEVPA [METTL11B_Y76_A72G] | -1.394 | -1.027 | -1.191 | – | – | – |
| Ac-SGDITYGQFAQ-NH2 [PLCG1_Y210] | – | – | – | – | – | Phosphorylation Rate (c-Src kinase domain [3]): 2.121 s⁻¹ |
| NTFENYWPFFQ [GATM_Y103_K102N_YF] | – | 4.344 | 3.46 | – | 2.256 | – |
| PLDNLYAEPAV [PRPS1_Y146_V142L] | 0.1056 | 0.8585 | 0.4426 | 0.376 | – | – |
| QLQQAYQEAFE [YWHAZ_Y149_S145L] | – | – | – | – | – | Screen (Fer kinase domain; [7]): 1.389; Screen (EPHB2 kinase domain; [10]): 1.539; Screen (c-Abl kinase domain; [11]): 2.922 |
| QKTGDYFDLFG [PTPN11_Y62_N58K_YF] | – | -1.083 | -1.66 | -1.277 | – | – |
| RPPELYALMSD [ZAP70_Y569_C564R] | – | – | – | 1.184 | – | Screen (variant relative to reference peptide, measured in the pTyr-Var library screen) (EPHB1 kinase domain): 2.108; Screen (EPHB2 kinase domain; [10]): 1.779; Screen (c-Abl kinase domain; [11]): 3.577 |
| LNEAVYTKMMT [G6PD_Y401_P396L] | 1.268 | 1.441 | 2.035 | – | 0.3249 | – |
| LVIIKYLPEWT [PSEN1_Y240_F237I] | – | 1.338 | 1.457 | – | – | – |
| QSSALYEDHFL [ASS1_Y83_R86H_YF] | 0.8014 | 0.2982 | 1.176 | – | 0.1278 | – |
| LDTFIYDAAVL [GRIN2A_Y730_A727T] | -0.1876 | -0.673 | -0.5027 | – | 0.2901 | – |
| LFEDRYLLGPS [ASS1_Y87_T91P_YF] | – | -1.226 | -0.4556 | – | – | – |
